Laboratory results as given in patent EP3027591B1, “NOVEL DERIVATIVES OF A 3,4-DIHYDROISOQUINOLINE-3-CARBOXYLIC ACID HAVING ANTI-CANCER PROPERTIES, A METHOD FOR THEIR SYNTHESIS, PHARMACEUTICAL COMPOSITIONS COMPRISING SAID DERIVATIVES, AND THEIR USE” (Narodowy Instytut Zdrowia Publicznego Panstwowy Zaklad …, priority 2013, dated 2015).
Values after ≈ are worked out from the molar mass of the structure shown. Where two headings read alike, the source gives them in different places.

How the values were obtained:
[1] = tested on: HLMEC (normal human epithelium); assay: Cytotoxic activity against normal cells, SRB test; format: cell-based; conditions: 72-hour culture
Protocol: (§1) 4.3. Cytotoxic activity evaluation against normal cell lines with diverse tissue origins using the SRB test:
(§2) • a) normal mouse fibroblasts (BALB/3T3), • b) normal mammary gland cells (MCF-10), • c) normal human epithelium (HLMEC)
(§3) The stock solution of the tested compound with concentration of 20 mg/ml was prepared day before the analysis by dissolving the preparation in DMSO, followed by storage in -20°C. After 24 hours the preparation was thawed and diluted with the culture medium. The compounds were tested in concentrations of 100, 10, 1, 0.1 0.01 µg/ml.
(§4) The following human cancer cell lines were used in the study: HL-60 (promyelocytic leukemia), HL-60/MX2 (promyelocytic leukemia, line resistant to mitoxantrone), MCF7 (mammary gland cancer), LoVo (colorectal cancer), LoVo/Dx (colorectal cancer with multidrug resistance), HCV29T (bladder cancer), A498 (kidney cancer), A549 (lung cancer) and LNCaP (prostate cancer), as well as normal cell lines: BALB3T3 (normal mouse fibroblasts), MCF-10 (normal mammary gland cells) and HLMEC (normal human endothelium).
(§5) The cells in the phase of logarithmic growth were seeded on a 96-well plate (Sarsted) in quantity of 1 x 10^4 cells/well, and then incubated at 37°C, 5% CO2 for 24 hours. Subsequently, the tested compound was added in different concentrations and the incubation was carried out. […] For each assay the samples containing predetermined preparation concentrations were applied in triplicates. The experiments were repeated 3-5 times.
(§6) Sulphorhodamine B (SRB) is an anionic dye which binds to […] amino acids of cellular proteins. The determination of cytotoxic activity in the assay is based on the measurement of the amount of cellular proteins.
(§7) After the incubation is finished the attached cells are fixed with cold 50% TCA (4°C) at 4°C for 1 hour. Next, each well is washed with water and air dried, repeating this step 5 times.
(§8) 0.4% SRB solution (Sigma-Aldrich) dissolved in 1% acetic acid is added consecutively to each well and the staining is carried out for 30 minutes. The unbound dye is removed and the cells are washed 4 times with 1% acetic acid. Next, the plate is air dried for about 5 minutes.
(§9) The bound dye is dissolved by adding 10 mM Tris-base to each well and then OD is determined for wavelength 540 nm (Multiscan RC photometer, Labsystes, Helsinki).

[2] = tested on: MCF-10 (normal mammary gland cells); assay: Cytotoxic activity against normal cells, SRB test; format: cell-based
Protocol: as §1, §2, §3, §4, §5, §6, §7, §8, §9

[3] = tested on: Balb/3T3 (normal mouse fibroblasts); assay: Cytotoxic activity against normal cells, SRB test; format: cell-based; conditions: Balb/3T3, 72-hour culture
Protocol: as §1, §2, §3, §4, §5, §6, §7, §8, §9

[4] = tested on: Lovo/Dx (colorectal cancer with multidrug resistance); assay: Anti-proliferative activity, SRB test; format: cell-based, human; conditions: 72-hour culture
Excerpt: (§10) 4.1. Anti-proliferative activity evaluation using the SRB test [Skehan et al., J. Natl. Cancer Inst., 82: 1107-1112, 1990] against human cancer cell lines with diverse tissue origins and determination of the IC50 concentration: • a) colorectal cancer LoVo, • b) colorectal cancer LoVo/DX (with multidrug resistance), • c) breast cancer MCF-7, • d) prostate cancer LNCaP, • e) bladder cancer HCV29T, • f) kidney cancer A498, • g) lung cancer A549
as §3, §4, §5, §6, §7, §8, §9

MCF-7 (breast cancer) = assay: Anti-proliferative activity, SRB test; format: cell-based, human
Excerpt: as §10, §3, §4, §5, §6, §7, §8, §9

A498 (kidney cancer) = assay: Anti-proliferative activity, SRB test; format: cell-based, human; conditions: A498, 72-hour culture
Excerpt: as §10, §3, §4, §5, §6, §7, §8, §9

Lovo (colorectal cancer) = assay: Anti-proliferative activity, SRB test; format: cell-based, human; conditions: 72-hour culture
Excerpt: as §10, §3, §4, §5, §6, §7, §8, §9

LNCaP (prostate cancer) = assay: Anti-proliferative activity, SRB test; format: cell-based, human; conditions: 72-hour culture
Excerpt: as §10, §3, §4, §5, §6, §7, §8, §9

A549 (lung cancer) = assay: Anti-proliferative activity, SRB test; format: cell-based, human; conditions: A549, 72-hour culture
Excerpt: as §10, §3, §4, §5, §6, §7, §8, §9

HCV29T (bladder cancer) = assay: Anti-proliferative activity, SRB test; format: cell-based, human; conditions: 72-hour culture
Excerpt: as §10, §3, §4, §5, §6, §7, §8, §9

[5] = tested on: HL-60 (promyelocytic leukemia); assay: Anti-proliferative activity, MTT test; format: cell-based, human; conditions: HL-60, 72-hour culture
Protocol: (§11) 4.2. Anti-proliferative activity evaluation using the MTT test [Marcinkowska et al.: J. Steroid Biochem. Mol. 76: 71-78, 1998] against human cancer cell lines with diverse tissue origins and determination of the IC50 concentration: • a) promyelocytic leukemia HL-60, • b) promyelocytic leukemia HL-60/MX2 (with multidrug resistance)
as §3, §4, §5
(§12) The method involves a measurement of cell number increase inhibition utilizing the redox activity of mitochondria. The determination of biological activity with the MTT (3-(4,5-dimethylthiazol-2-yl)-2,5-diphenyltetrazolium bromide) assay is based on the assumption that reduction of the dye occurs only in viable cells. As a result of mitochondrial dehydrogenase activity the water-soluble tetrazolium salt (thiazolyl blue […] - MTT) is converted to water-insoluble formazan crystals. The quantity of the formed formazan crystals is proportional to the number of cells.
(§13) 3-4 hours before the end of cell incubation 20 µl of MTT solution (5 mg/ml) was added to each well. Next, 80 µl of dissolving mixture (with the following composition: 225 ml DMF (POCh), 67.5 g SDS (Sigma-Aldrich), 275 ml distilled H2O) was added. After 24 hours, formazan crystals were dissolved and OD of the samples was measured for wavelength 570 nm (Multiskan PC photometer, Labsystem, Helsinki).

[6] = tested on: HL-60 MX2 (promyelocytic leukemia with multidrug resistance); assay: Anti-proliferative activity, MTT test; format: cell-based, human
Protocol: as §11, §3, §4, §5, §12, §13

[7] = biological target: T1, pig kidney microsomal leucyl aminopeptidase, Type IV-S (Sus scrofa, UniProt P15145); assay: Leucyl aminopeptidase inhibition (L-leucine p-nitroanilide substrate, absorbance 405 nm); format: biochemical; conditions: pre-incubation 30 minutes at 37 °C, pH 8.5; IC50 by linear regression
T1 construct: pig kidney microsomal leucyl aminopeptidase, Type IV-S (Sigma-Aldrich) 3.5 mg of protein/ml; purchased Sigma-Aldrich; host or cells: pig kidney (microsomal fraction)
T1 sequence (P15145 1-963): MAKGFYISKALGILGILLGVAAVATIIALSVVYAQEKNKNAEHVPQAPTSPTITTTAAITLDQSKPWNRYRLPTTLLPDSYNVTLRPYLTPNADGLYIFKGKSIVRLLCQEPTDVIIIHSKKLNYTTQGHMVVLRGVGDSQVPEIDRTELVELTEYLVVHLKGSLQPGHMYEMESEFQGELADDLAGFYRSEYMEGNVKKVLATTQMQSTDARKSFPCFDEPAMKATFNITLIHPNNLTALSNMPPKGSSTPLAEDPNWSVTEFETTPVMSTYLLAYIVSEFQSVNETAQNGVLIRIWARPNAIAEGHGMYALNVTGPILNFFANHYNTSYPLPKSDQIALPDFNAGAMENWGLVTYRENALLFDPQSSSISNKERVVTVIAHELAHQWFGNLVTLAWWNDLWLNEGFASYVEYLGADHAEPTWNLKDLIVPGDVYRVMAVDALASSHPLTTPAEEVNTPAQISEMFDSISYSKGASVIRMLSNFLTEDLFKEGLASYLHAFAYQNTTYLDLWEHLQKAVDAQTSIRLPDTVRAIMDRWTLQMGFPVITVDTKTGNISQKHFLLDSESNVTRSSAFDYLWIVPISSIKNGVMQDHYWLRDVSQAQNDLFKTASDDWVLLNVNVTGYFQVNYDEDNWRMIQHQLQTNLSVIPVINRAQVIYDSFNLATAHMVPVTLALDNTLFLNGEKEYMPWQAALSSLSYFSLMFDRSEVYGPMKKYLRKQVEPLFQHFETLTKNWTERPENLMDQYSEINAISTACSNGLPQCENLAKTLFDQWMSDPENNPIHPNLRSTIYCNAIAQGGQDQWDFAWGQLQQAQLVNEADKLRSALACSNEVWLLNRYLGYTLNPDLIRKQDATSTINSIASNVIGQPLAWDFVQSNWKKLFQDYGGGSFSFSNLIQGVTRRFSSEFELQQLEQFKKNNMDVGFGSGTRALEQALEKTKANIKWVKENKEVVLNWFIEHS
Protocol: Leucyl aminopeptidase inhibition according to Cahan R., Hetzroni E., Nisnevitch M., Nitzan Y.: Purification and Identification of a Novel Leucine Aminopeptidase from Bacillus Thuringiensis israelensis. Curr. Microbial (2007) 55: 413-419.
• 1. Enzyme: pig kidney microsomal leucyl aminopeptidase, Type IV-S (Sigma-Aldrich) 3.5 mg of protein/ml, 28 U/mg of protein; diluted with 0.02M Tris-HCl + 0.5 mM CaCl2 buffer pH=8.5 until activity 0.01225U achieved • 2. Substrate: L-leucine p-nitroanilide: 4.2 mg / 269 µl DMSO; solution diluted 1:19 with 0.02 M Tris-HCl buffer, pH = 8.5 + 0.5 mM CaCl2 • 3. 0.02 M Tris-HCl buffer, pH = 8.5 + 0.5 mM CaCl2 • 4. DMSO, inhibitor solution in DMSO
5 µl of leucyl aminopeptidase ([…]), 70 µl of Tris, 5 µl of inhibitor solution in different concentrations (in DMSO) were added to the wells of a microtitration plate, followed by pre-incubation for 30 minutes at 37 °C. Next, 20µl of diluted L-leucine p-nitroanilide solution was added, whereupon the reaction mixture was incubated for 20 minutes at 37 °C, with measurement of absorbance changes for wavelength 405 nm (Fluorostar, Omega, BMG Labtech). The control sample for the enzyme contained analogous components, while instead of the inhibitor solution DMSO (5 µl) was added.
For each inhibitor concentration the percentage inhibition was calculated. The inhibitor concentration required for 50% of enzyme activity inhibition (IC50) was calculated based on linear regression data between the percentage inhibition and the concentration for a given inhibitor.

[8] = Homo sapiens, MCF10, MCF-10, 72-hour culture, read-out: IC50
[9] = Homo sapiens, MCF7, MCF-7, 72-hour culture, read-out: IC50
[10] = Homo sapiens, HL60/MX2, HL-60 MX2, 72-hour culture, read-out: IC50

Compound | IC50 ([1]; Homo sapiens, read-out: IC50) [µg/mL] | IC50 [2, 8] [µg/mL] | IC50 ([3]; Mus musculus, read-out: IC50) [µg/mL] | IC50 [7] [µM] | IC50 ([4]; Homo sapiens, read-out: IC50) [µg/mL] | IC50 (MCF-7 (breast cancer); [9]) [µg/mL] | IC50 (A498 (kidney cancer); Homo sapiens, read-out: IC50) [µg/mL] | IC50 (Lovo (colorectal cancer); Homo sapiens, read-out: IC50) [µg/mL] | IC50 (LNCaP (prostate cancer); Homo sapiens, read-out: IC50) [µg/mL] | IC50 (A549 (lung cancer); Homo sapiens, read-out: IC50) [µg/mL] | IC50 (HCV29T (bladder cancer); Homo sapiens, read-out: IC50) [µg/mL] | IC50 ([5]; Homo sapiens, read-out: IC50) [µg/mL] | IC50 [6, 10] [µg/mL] | also measured
N.N.[Cl][Pt][Cl] [Cisplatin, reference compound] |  |  |  |  |  |  |  |  |  |  |  |  |  | IC50 [1]: 2.6 ± 0.3 µg/mL; IC50 ([2]; MCF-10, 72-hour culture): 0.7 µg/mL; IC50 [3]: 2.4 ± 0.3 µg/mL; IC50 [4]: 3.0 ± 0.7 µg/mL; IC50 (MCF-7 (breast cancer); MCF-7, 72-hour culture): 3.6 ± 0.6 µg/mL; IC50 (A498 (kidney cancer)): 2.8 ± 0.6 µg/mL; IC50 (Lovo (colorectal cancer)): 2.5 ± 1.3 µg/mL; IC50 (LNCaP (prostate cancer)): 6.2 ± 1.3 µg/mL; IC50 (A549 (lung cancer)): 3.2 ± 1.0 µg/mL; IC50 (HCV29T (bladder cancer)): 2.7 ± 0.6 µg/mL; IC50 [5]: 0.4 ± 0.1 µg/mL; IC50 ([6]; HL-60 MX2, 72-hour culture): 0.32 ± 0.02 µg/mL
CCOC(=O)C1(C(=O)OCC)Cc2cc(OCc3ccccc3)cc(OCc3ccccc3)c2C=N1 [Compound 3, 6,8-dibenzyloxy-3,4-dihydroisoquinoline-3,3-dicarboxylic acid diethyl ester] | 3.3 ± 0.3 (≈ 6.77 µM) | 15.3 (≈ 31.4 µM) | 17.4 ± 7.9 (≈ 35.6 µM) | 28 | 2 ± 0.8 (≈ 4.1 µM) | 4.7 ± 0.8 (≈ 9.64 µM) | 6.5 ± 1.5 (≈ 13.3 µM) | 3.1 ± 0.3 (≈ 6.36 µM) | 1.6 ± 0.3 (≈ 3.28 µM) | 6.4 ± 2.3 (≈ 13.1 µM) | 4.3 ± 0.7 (≈ 8.82 µM) | 0.12 (≈ 0.246 µM) | 1.3 (≈ 2.67 µM) | 
CCOC(=O)C1(C(=O)OCC)Cc2cc(O)cc(O)c2C=N1 [Compound 4, 6,8-dihydroxy-3,4-dihydroisoquinoline-3,3-dicarboxylic acid diethyl ester] |  |  |  | 1350 |  |  |  |  |  |  |  |  |  | 
O=C(O)C1Cc2cc(O)c(O)c(O)c2C=N1 (stereo not drawn) [Compound 8, 6,7,8-trihydroxy-3,4-dihydroisoquinoline-3-carboxylic acid] | 33.4 ± 5 (≈ 150 µM) | 18.9 ± 11.4 (≈ 84.7 µM) | 52.5 ± 22.3 (≈ 235 µM) | 3800 | 30.1 ± 2.3 (≈ 135 µM) | 18.9 ± 11.4 (≈ 84.7 µM) | 40 ± 18.4 (≈ 179 µM) | 33.6 ± 9.5 (≈ 151 µM) | 30.9 ± 5.7 (≈ 138 µM) | 44.3 ± 6.7 (≈ 198 µM) | 28.7 ± 7.2 (≈ 129 µM) | 27.7 ± 4.3 (≈ 124 µM) | 33.2 ± 2.7 (≈ 149 µM) | 
